Assay results from patent publication US20210060158A1, “AGONIST OF ARYL HYDROCARBON RECEPTOR FOR USE IN CANCER COMBINATION THERAPY” (INSTITUT CURIE, priority 2017, published 2021).

Assays:
[1] = test system: dermal mo-DC and MHC class II+ macrophages; assay: Skin mo-DC and macrophage proportions in mice fed I3C-supplemented diet; format: in vivo, mouse; conditions: supplemented diet versus control diet
Excerpt: FIG. 4: AhR is involved in mo-DC differentiation in vivo in the mouse. (A-C) Ear skin from individual AhR^-/- mice or WT littermates (A-B), or C57BL/6 mice fed with an experimental diet supplemented or not with indole-3-carbinol […]) (C), was digested to prepare single-cell suspensions. After gating on live CD45^+CD3^-NK1.1^-CD19^-Ly6G^-CD24^- CD11b^+ cells, cells were separated into 5 subsets based on the expression of Ly6C, CD64, MHC II and CCR2. (A) One representative AhR^-/- and WT mouse is shown. (B-C) Proportions of monocytes, early mo-DC, mo-DC, MHC II^+ macrophages and resident MHC II^- macrophages among Ly6C^+ or CD64^+ cells. Each symbol represents an individual mouse (B n=9 in 2 independent experiments, C n=12 in 2 independent experiments).*p<0.05, **p<0.01. (D-E) Cells from the peritoneal lavage were analyzed by flow cytometry. After gating on live CD115^+CD11b^+ cells, cells were separated into MHCII^+CD226^+ cells and ICAM2^+MHCII^- cells. (D) Cell-sorted cells were analyzed after cytospin and Giemsa/May-Grünwald staining. Bar=10 μm. Representative of 2 independent experiments. (E) C57BL/6 mice fed with an experimental diet supplemented or not with […], and treated or not with a cocktail of antibiotics. […] To address the physiological relevance of our findings, we analyzed the role of AhR in mo-DC and mo-Mac differentiation in vivo in the mouse. […]

Treg cells = assay: Induction of functional Treg cells upon administration
Excerpt: The impact of a given AHR agonist on Treg cells may be estimated by exposing purified T cells (typically CD4^+ T cells) in vitro with the said agonist. Treg cells are characterized by expression of the transcription factor Foxp3.

peritoneal mo-DC = assay: Peritoneal MHCII+CD226+ mo-DC in antibiotics-treated mice fed I3C-supplemented or control diet; format: in vivo, mouse; conditions: I3C-supplemented versus control diet, peritoneal lavage
Excerpt: FIG. 4: AhR is involved in mo-DC differentiation in vivo in the mouse. (A-C) Ear skin from individual AhR^-/- mice or WT littermates (A-B), or C57BL/6 mice fed with an experimental diet supplemented or not with indole-3-carbinol […]) (C), was digested to prepare single-cell suspensions. After gating on live CD45^+CD3^-NK1.1^-CD19^-Ly6G^-CD24^- CD11b^+ cells, cells were separated into 5 subsets based on the expression of Ly6C, CD64, MHC II and CCR2. (A) One representative AhR^-/- and WT mouse is shown. (B-C) Proportions of monocytes, early mo-DC, mo-DC, MHC II^+ macrophages and resident MHC II^- macrophages among Ly6C^+ or CD64^+ cells. Each symbol represents an individual mouse (B n=9 in 2 independent experiments, C n=12 in 2 independent experiments).*p<0.05, **p<0.01. (D-E) Cells from the peritoneal lavage were analyzed by flow cytometry. After gating on live CD115^+CD11b^+ cells, cells were separated into MHCII^+CD226^+ cells and ICAM2^+MHCII^- cells. (D) Cell-sorted cells were analyzed after cytospin and Giemsa/May-Grünwald staining. Bar=10 μm. Representative of 2 independent experiments. […] To address whether the decrease of peritoneal mo-DC upon antibiotics treatment was AhR-dependent, we fed antibiotics-treated mice with a […]-supplemented or control diet, and analyzed cells from the peritoneal lavage (FIG. 3E).

[2] = test system: IRF4 expression in CD14+ monocytes; assay: IRF4 and MAFB expression in monocytes after 3 h of culture, RT-qPCR; format: cell-based, human; conditions: 3 h culture, with IL-4 (FICZ: with IL-4 and TNF-α)
Method: (§1) FIG. 2: AHR is a molecular switch for mo-DC versus mo-Mac differentiation. (A-B) CD14^+ monocytes were infected at day 0 with lentivirus containing sh RNA against AHR, or control sh RNA. After 5 days of culture, cells were analyzed by Immuno Blot (A) or by flow cytometry (B). (A) Silencing quantified based on Immuno Blot stainings. (B) Proportions of DC and macrophages in the culture at day 5. Each symbol represents an individual donor (n=6 in 3 independent experiments). *p<0.05. (C) Monocytes were cultured with MCSF, IL-4 and TNF-α for 5 days, in the presence of various concentrations of FICZ (AHR agonist) or SR1 (AHR inhibitor). Proportions of DC and macrophages at day 5. […] (D-E) CD14^+ monocytes were analyzed directly after isolation, or were cultured for 3h in medium alone or with various combinations of MCSF, IL-4, TNF-α, FICZ or SRI. (D) Relative expression of IRF4 and MAFB measured by RT-qPCR. […] (E) Expression of IRF4 and MAFB at the single cell level was measured by fluorescent in situ hybridization coupled to flow cytometry. […]
To decipher how AHR shapes monocyte fate, we assessed IRF4 and MAFB expression in monocytes after 3 h of culture with various combinations of M-CSF, IL-4, TNF-α, SR1 and FICZ (FIG. 2D). We also analyzed the expression of CYP1A1, a known direct target of AHR (Stockinger et al., 2014), as a control for AHR activation. […]

CD14+ monocytes = assay: Human CD14+ monocyte differentiation into mo-DC versus mo-Mac (culture with M-CSF, IL-4 and TNF-α, flow cytometry at day 5); format: cell-based; conditions: monocytes cultured with M-CSF, IL-4 and TNF-α for 5 days, various doses of compound
Method: as §1
FIG. 3: AHR acts on mo-DC differentiation through BLIMP-1. […] PRDM1 expression measured by RT-qPCR. […] Total cells were lyzed at different days and analyzed by Immuno Blot. […] After 5 days of culture, cells were analyzed by Immuno Blot (C) or by flow cytometry (D-E). (C) Silencing quantified based on Immuno Blot stainings. […]

Compound	MHC class II+ macrophages in the skin [1]	mo-DC in the skin [1]	induction of functional Treg cells (Treg cells)	peritoneal mo-DC differentiation in antibiotics-treated mice (peritoneal mo-DC)	IL-4-induced IRF4 expression [2]	mo-DC development / proportions at day 5 (CD14+ monocytes)	mo-Mac development / proportions at day 5 (CD14+ monocytes)
OCc1c[nH]c2ccccc12 [I3C, indole-3-carbinol]	decreased	significantly increased	does not induce functional Treg cells	restored mo-DC differentiation in antibiotics-treated mice almost up to normal proportions	–	–	–
CC(C)n1cnc2c(NCCc3ccc(O)cc3)nc(-c3csc4ccccc34)nc21 [SR1, stemregenin-1]	–	–	–	–	inhibited	decreasing	increased
